Measured values as given in patent US12312347B2, “Azaindole derivative and use thereof as FGFR and C-Met inhibitor” (Wuxi Life Fountain Biotech Co., Ltd, priority 2018, dated 2025).
Counter-ions that a name gives are not always drawn.

Experiments:
Format in all cases: biochemical
[1] = target: T1, human FGFR1 (Homo sapiens, UniProt P11362); assay: 33P isotope-labeled kinase activity test, FGFR1; settings: ATP 5 μM
T1 construct: purchased Invitrogen PV3146
Description: (§1) The inhibitory activities of the tested compounds on human FGFR1, FGFR4, and c-Met were evaluated by the IC50 values measured using ^33P isotope-labeled kinase activity test (Reaction Biology Corp).
(§2) Buffer condition: 20 mM Hepes (pH 7.5), 10 mM MgCl2, 1 mM EGTA, 0.02% Brij35, 0.02 mg/mL BSA, 0.1 mM Na3VO4, 2 mM DTT, 1% DMSO.
Test procedure: The test compounds were dissolved in DMSO at room temperature and formulated to be 10 mM solutions for later use. The substrates were dissolved in freshly prepared buffer, and kinases to be tested were added and mixed well. The test compounds dissolved in DMSO were added to the above mixed reaction solutions by acoustic technique (Echo 550). […] After incubation for 15 min, ^33P-ATP (activity 0.01 μCi/μL, corresponding concentrations are listed in Table 1) was added to start the reaction. Supplier item number, batch number, as well as the concentration information in the reaction solution of FGFR1, FGFR4, c-Met and substrates thereof are listed in Table 1. […] The kinase activity data are expressed by comparison between the kinase activity in the test compound group and the kinase activity in the blank group (containing DMSO only). IC50 values were obtained by curve fitting with Prism4 software (GraphPad).

[2] = target: T2, human FGFR4 (Homo sapiens, UniProt P22455); assay: 33P isotope-labeled kinase activity test, FGFR4; settings: ATP 100 μM
T2 construct: purchased Invitrogen P3054
T2 sequence (P22455 22-802): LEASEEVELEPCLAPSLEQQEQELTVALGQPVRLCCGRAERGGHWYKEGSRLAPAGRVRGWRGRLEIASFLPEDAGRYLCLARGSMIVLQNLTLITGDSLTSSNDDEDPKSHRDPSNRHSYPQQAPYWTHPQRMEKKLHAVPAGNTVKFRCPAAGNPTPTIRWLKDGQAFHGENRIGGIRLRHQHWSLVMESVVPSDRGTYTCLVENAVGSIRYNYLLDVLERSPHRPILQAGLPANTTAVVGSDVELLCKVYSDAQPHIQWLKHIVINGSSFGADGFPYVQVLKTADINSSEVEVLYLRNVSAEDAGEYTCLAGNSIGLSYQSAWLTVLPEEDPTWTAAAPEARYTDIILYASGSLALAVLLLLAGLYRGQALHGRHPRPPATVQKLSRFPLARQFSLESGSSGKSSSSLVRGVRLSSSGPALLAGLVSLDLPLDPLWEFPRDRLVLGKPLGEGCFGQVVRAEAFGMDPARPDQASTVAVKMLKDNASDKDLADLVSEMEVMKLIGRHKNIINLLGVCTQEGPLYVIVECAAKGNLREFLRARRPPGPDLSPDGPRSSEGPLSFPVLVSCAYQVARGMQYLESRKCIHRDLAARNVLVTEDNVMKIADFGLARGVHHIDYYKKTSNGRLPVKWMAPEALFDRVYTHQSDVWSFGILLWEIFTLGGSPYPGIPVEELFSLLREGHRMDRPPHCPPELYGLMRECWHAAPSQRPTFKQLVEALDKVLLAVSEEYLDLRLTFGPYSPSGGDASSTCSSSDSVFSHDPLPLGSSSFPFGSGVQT
Description: as §1, §2
(§3) Test procedure: The test compounds were dissolved in DMSO at room temperature and formulated to be 10 mM solutions for later use. The substrates were dissolved in freshly prepared buffer, and kinases to be tested were added and mixed well. The test compounds dissolved in DMSO were added to the above mixed reaction solutions by acoustic technique (Echo 550). The concentration of the compound in reaction solution was 1 μM, […], 3.91 nM, 0.977 nM, 0.244 nM, 0.061 nM, 0.0153 nM, 0.00381 nM or 10 μM, 2.50 μM, 0.62 μM, 0.156 μM, 39.1 nM, 9.8 nM, 2.4 nM, 0.61 nM, 0.15 nM, 0.038 nM. After incubation for 15 min, ^33P-ATP (activity 0.01 μCi/μL, corresponding concentrations are listed in Table 1) was added to start the reaction. Supplier item number, batch number, as well as the concentration information in the reaction solution of FGFR1, FGFR4, c-Met and substrates thereof are listed in Table 1. […] The kinase activity data are expressed by comparison between the kinase activity in the test compound group and the kinase activity in the blank group (containing DMSO only). IC50 values were obtained by curve fitting with Prism4 software (GraphPad).

[3] = target: T3, human c-Met (Homo sapiens, UniProt P08581); assay: 33P isotope-labeled kinase activity test, c-Met; settings: ATP 10 μM
T3 construct: purchased Invitrogen PV3143
T3 sequence (P08581 25-1390): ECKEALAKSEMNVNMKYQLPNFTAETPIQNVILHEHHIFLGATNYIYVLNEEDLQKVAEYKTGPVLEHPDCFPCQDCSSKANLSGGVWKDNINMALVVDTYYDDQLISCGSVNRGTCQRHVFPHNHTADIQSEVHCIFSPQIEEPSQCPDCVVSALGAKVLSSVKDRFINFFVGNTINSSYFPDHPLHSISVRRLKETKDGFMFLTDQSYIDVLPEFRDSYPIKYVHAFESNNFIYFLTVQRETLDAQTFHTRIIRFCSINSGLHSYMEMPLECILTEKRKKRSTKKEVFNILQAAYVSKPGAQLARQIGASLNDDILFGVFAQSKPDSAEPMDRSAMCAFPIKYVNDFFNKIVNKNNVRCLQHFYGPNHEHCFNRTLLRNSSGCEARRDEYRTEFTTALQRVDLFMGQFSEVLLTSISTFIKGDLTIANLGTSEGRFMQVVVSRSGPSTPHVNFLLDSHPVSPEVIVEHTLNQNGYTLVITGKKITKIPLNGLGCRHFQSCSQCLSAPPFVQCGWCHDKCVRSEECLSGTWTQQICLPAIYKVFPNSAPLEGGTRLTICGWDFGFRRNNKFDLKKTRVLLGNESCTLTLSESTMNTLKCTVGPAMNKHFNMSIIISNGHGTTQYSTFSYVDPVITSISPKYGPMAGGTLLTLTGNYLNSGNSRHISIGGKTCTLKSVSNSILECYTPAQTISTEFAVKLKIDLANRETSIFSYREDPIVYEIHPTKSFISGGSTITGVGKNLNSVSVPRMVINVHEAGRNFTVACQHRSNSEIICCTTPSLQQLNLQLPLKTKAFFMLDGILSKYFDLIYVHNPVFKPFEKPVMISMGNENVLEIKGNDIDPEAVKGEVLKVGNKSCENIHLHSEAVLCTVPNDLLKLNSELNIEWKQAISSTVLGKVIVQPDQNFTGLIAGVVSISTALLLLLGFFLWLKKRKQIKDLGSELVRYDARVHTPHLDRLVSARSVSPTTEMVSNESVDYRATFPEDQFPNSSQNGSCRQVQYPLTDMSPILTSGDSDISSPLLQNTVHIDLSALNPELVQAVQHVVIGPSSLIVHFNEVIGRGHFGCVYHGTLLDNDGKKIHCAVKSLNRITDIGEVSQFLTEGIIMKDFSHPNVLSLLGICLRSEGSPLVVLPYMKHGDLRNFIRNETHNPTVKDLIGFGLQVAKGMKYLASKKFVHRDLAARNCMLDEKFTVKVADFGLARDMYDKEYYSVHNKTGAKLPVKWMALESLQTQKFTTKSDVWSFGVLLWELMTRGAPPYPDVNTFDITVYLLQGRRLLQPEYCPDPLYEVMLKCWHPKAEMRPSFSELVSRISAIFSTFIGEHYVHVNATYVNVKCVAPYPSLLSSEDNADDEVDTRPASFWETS
Description: as §1, §2, §3

T1 sequence (P11362 22-822): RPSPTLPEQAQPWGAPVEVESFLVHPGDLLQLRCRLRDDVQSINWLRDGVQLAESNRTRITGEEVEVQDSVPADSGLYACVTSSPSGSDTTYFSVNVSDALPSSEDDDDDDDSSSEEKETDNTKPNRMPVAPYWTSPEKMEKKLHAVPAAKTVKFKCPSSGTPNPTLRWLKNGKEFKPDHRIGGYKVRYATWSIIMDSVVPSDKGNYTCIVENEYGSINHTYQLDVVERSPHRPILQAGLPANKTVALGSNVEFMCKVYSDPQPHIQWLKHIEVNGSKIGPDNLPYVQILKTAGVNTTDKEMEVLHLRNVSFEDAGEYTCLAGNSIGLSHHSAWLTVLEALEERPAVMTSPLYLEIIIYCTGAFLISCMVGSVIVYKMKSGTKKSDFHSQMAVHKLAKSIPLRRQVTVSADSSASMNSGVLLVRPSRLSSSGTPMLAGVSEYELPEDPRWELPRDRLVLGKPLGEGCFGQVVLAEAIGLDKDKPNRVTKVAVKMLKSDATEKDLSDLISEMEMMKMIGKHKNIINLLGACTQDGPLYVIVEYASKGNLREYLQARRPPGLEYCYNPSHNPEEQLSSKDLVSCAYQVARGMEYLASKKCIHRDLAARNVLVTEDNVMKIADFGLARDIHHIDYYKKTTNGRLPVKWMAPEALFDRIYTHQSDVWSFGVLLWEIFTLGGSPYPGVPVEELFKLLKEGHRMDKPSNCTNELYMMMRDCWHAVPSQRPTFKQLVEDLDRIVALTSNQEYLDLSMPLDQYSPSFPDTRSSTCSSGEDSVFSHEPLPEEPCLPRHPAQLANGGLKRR

| IC50 [1] [nM] | IC50 [2] [nM] | IC50 [3] [nM] | Structure (SMILES) |
| --- | --- | --- | --- |
| 0.42 | 2.9 | 8.9 | COc1cc(OC)c(F)c(Cc2c[nH]c3ncc(-c4cnn(CCO)c4)cc23)c1F [Hydrochloride of embodiment 46] |
| 1.1 | 21.4 | 49.4 | COc1cc(OC)c(F)c(Cc2c[nH]c3ncc(-c4ccc(C5(C#N)CCNCC5)cc4)cc23)c1F [Hydrochloride of embodiment 57] |
| 0.6 | 8.4 | 35.3 | CCN(CC)CCn1cc(-c2cnc3[nH]cc(Cc4c(F)c(OC)cc(OC)c4F)c3c2)cn1 [Hydrochloride of embodiment 69] |
| 0.5 | 5 | 31.4 | COCCNCCn1cc(-c2cnc3[nH]cc(Cc4c(F)c(OC)cc(OC)c4F)c3c2)cn1 [Hydrochloride of embodiment 70] |
| 0.4 | 4.9 | 32.8 | COc1cc(OC)c(F)c(Cc2c[nH]c3ncc(-c4cnn(CC(O)CNC(C)C)c4)cc23)c1F (stereo not drawn) [Hydrochloride of embodiment 71] |
| 0.6 | 2.5 | 32.4 | COc1cc(OC)c(F)c(Cc2c[nH]c3ncc(-c4cnn(CC(O)CO)c4)cc23)c1F (stereo not drawn) [Hydrochloride of embodiment 73] |
| 0.04 | 15.2 | 74.3 | CCN1CCC(n2cc(-c3cnc4[nH]cc(Cc5c(F)c(OC)cc(OC)c5F)c4n3)cn2)CC1 [Trifluoroacetate salt of embodiment 6] |
| 0.43 | 20.7 | 496 | COc1cc(OC)c(F)c(Cc2c[nH]c3ncc(-c4cnn(CCO)c4)nc23)c1F [Trifluoroacetate salt of embodiment 8] |
| 0.04 | 9 | 7.62 | COc1cc(OC)c(F)c(Cc2c[nH]c3ncc(-c4cnn(C5CCN(C)CC5)c4)cc23)c1F [Trifluoroacetate salt of embodiment 13] |
| 1.34 | 27.5 | 14 | COc1cc(OC)c(F)c(Cc2c[nH]c3ncc(-c4cnn(C5CCN(C(C)C)CC5)c4)cc23)c1F [Trifluoroacetate salt of embodiment 14] |
| 1.94 | 25.9 | 16 | COc1cc(OC)c(F)c(Cc2c[nH]c3ncc(-c4cnn(C5CCN(C6COC6)CC5)c4)cc23)c1F [Trifluoroacetate salt of embodiment 15] |
| 13.7 | 262 | 5.7 | COc1ccc(F)c(Cc2c[nH]c3ncc(-c4cnn(C5CCNCC5)c4)cc23)c1F [Trifluoroacetate salt of embodiment 19] |
| 2 | 25.2 | 55.9 | COc1cc(OC)c(F)c(CC2=CN=C3N=CC(c4cnn(CCN5CCOCC5)c4)=CC23)c1F (stereo not drawn) [Trifluoroacetate salt of embodiment 21] |
| 4.85 | 43.9 | 21 | COc1cc(OC)c(F)c(Cc2c[nH]c3ncc(-c4cnn(C5CN(S(C)(=O)=O)C5)c4)cc23)c1F [Trifluoroacetate salt of embodiment 23] |
| 2.1 | 31.9 | 16.9 | CCN1CC(n2cc(-c3cnc4[nH]cc(Cc5c(F)c(OC)cc(OC)c5F)c4c3)cn2)C1 [Trifluoroacetate salt of embodiment 25] |
| 1.9 | 24.6 | 35.6 | COc1cc(OC)c(F)c(Cc2c[nH]c3ncc(-c4cnn(CC5CNC5)c4)cc23)c1F [Trifluoroacetate salt of embodiment 29] |

| IC50 [1] [nM] | IC50 [2] [nM] | IC50 [3] [nM] | Structure (SMILES) |
| --- | --- | --- | --- |
| 2.1 | 28.2 | 169 | COc1cc(OC)c(F)c(Cc2c[nH]c3ncc(-c4cnn(S(C)(=O)=O)c4)cc23)c1F [Trifluoroacetate salt of embodiment 30] |
| 0.9 | 9.9 | 6.9 | COc1cc(OC)c(F)c(Cc2c[nH]c3ncc(-c4cnn(C5CCC(O)CC5)c4)cc23)c1F (stereo not drawn) [Trifluoroacetate salt of embodiment 31] |
| 29 | 752 | 24.5 | CCN1CCC(n2cc(-c3cnc4[nH]cc(Cc5c(F)ccc(OC)c5F)c4c3)c(C)n2)CC1 [Trifluoroacetate salt of embodiment 39] |
| 0.12 | 4.4 | 136 | COc1cc(OC)c(F)c(Cc2c[nH]c3ncc(-c4cnc5c(c4)CNC5)cc23)c1F [Trifluoroacetate salt of embodiment 50] |
| 0.27 | 3 | 84.1 | CCN1Cc2cc(-c3cnc4[nH]cc(Cc5c(F)c(OC)cc(OC)c5F)c4c3)cnc2C1 [Trifluoroacetate salt of embodiment 51] |
| 0.06 | 13.7 | 137 | COc1cc(OC)c(F)c(Cc2c[nH]c3ncc(-c4cnc5c(c4)CNCC5)cc23)c1F [Trifluoroacetate salt of embodiment 52] |
| 0.32 | 2.9 | 107 | CCN1CCc2ncc(-c3cnc4[nH]cc(Cc5c(F)c(OC)cc(OC)c5F)c4c3)cc2C1 [Trifluoroacetate salt of embodiment 53] |
| 2.7 | 58.5 | 16.5 | COc1cc(OC)c(F)c(Cc2c[nH]c3ncc(-c4ccc5c(c4)NC(=O)C54CCNCC4)cc23)c1F [Trifluoroacetate salt of embodiment 54] |
| 2.2 | 44.9 | 22.8 | CCN1CCC2(CC1)C(=O)Nc1cc(-c3cnc4[nH]cc(Cc5c(F)c(OC)cc(OC)c5F)c4c3)ccc12 [Trifluoroacetate salt of embodiment 55] |
| 1.9 | 53.2 | 7.8 | COc1cc(OC)c(F)c(Cc2c[nH]c3ncc(-c4ccc5c(c4)NC(=O)C54CCN(C)CC4)cc23)c1F [Trifluoroacetate salt of embodiment 56] |
| 1.2 | 23.5 | 162 | CCN1CCC(C#N)(c2ccc(-c3cnc4[nH]cc(Cc5c(F)c(OC)cc(OC)c5F)c4c3)cc2)CC1 [Trifluoroacetate salt of embodiment 58] |
| 0.8 | 14.7 | 127 | COc1cc(OC)c(F)c(Cc2c[nH]c3ncc(-c4cccc(C5(C#N)CCNCC5)c4)cc23)c1F [Trifluoroacetate salt of embodiment 59] |
| 2.2 | 33.4 | 320 | CCN1CCC(C#N)(c2cccc(-c3cnc4[nH]cc(Cc5c(F)c(OC)cc(OC)c5F)c4c3)c2)CC1 [Trifluoroacetate salt of embodiment 60] |
| 0.7 | 4.5 | 243 | COc1cc(OC)c(F)c(Cc2c[nH]c3ncc(-c4cncc(C5(C#N)CCNCC5)c4)cc23)c1F [Trifluoroacetate salt of embodiment 61] |
| 0.5 | 9 | 28 | COc1cc(OC)c(F)c(Cc2c[nH]c3ncc(-c4cnn(CC(C)(C)O)c4)cc23)c1F [Trifluoroacetate salt of embodiment 66] |
